The source made the active and inactive calls. The rule behind the calls is not given here.
Columns and labels:
[1] = target: T1, 5-hydroxytryptamine receptor 1A (Rattus norvegicus, UniProt P19327); experiment: Displacement of [3H]8-OH-DPAT from 5-HT1A receptor in rat hippocampus; assay type: tissue-based
T1 sequence (P19327 whole entry): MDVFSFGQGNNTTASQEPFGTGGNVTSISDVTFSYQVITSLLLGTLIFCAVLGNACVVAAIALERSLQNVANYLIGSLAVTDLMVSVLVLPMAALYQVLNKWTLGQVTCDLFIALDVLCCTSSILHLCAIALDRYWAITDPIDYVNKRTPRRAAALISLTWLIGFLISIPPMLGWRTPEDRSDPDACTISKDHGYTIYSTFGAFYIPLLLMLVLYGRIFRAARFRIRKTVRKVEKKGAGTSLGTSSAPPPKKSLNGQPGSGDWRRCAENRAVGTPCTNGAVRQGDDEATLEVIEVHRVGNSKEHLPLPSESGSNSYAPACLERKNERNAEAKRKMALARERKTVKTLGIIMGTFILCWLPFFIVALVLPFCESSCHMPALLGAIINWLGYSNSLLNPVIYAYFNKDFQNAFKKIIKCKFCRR

[2] = target: Sodium-dependent serotonin transporter (Rattus norvegicus, UniProt P31652); experiment: Displacement of [3H]citalopram from SERT in rat cerebral cortex by liquid scintillation counting; assay type: tissue-based
[3] = test system: Mus musculus; experiment: Effect on hypothermia in Swiss albino mouse assessed as change in rectal body temperature at 10 mg/kg, ip after 60 mins by inducible hypothermia test; assay type: functional, organism-based; design: dose 10 mg/kg
[4] = test system: Mus musculus; experiment: Effect on hypothermia in Swiss albino mouse assessed as change in rectal body temperature at 20 mg/kg, ip dosed 15 mins after 0.1 mg/kg, sc WAY 100635 challenge measured after 60 mins by inducible hypothermia test; assay type: functional, organism-based
[5] = test system: Mus musculus; experiment: Effect on hypothermia in Swiss albino mouse assessed as change in rectal body temperature at 10 mg/kg, ip after 30 mins by inducible hypothermia test; assay type: functional, organism-based; design: dose 10 mg/kg
[6] = test system: Mus musculus; experiment: Antidepressant activity in Swiss albino mouse assessed as reduction of immobility time at 20 mg/kg, ip administered 30 mins before test measured 6 mins test session after 2 mins habituation period by forced swimming test; assay type: functional
[7] = test system: Mus musculus; experiment: Effect on hypothermia in Swiss albino mouse assessed as change in rectal body temperature at 10 mg/kg, ip after 120 mins by inducible hypothermia test; assay type: functional, organism-based; design: dose 10 mg/kg
[8] = test system: Mus musculus; experiment: Effect on hypothermia in Swiss albino mouse assessed as change in rectal body temperature at 20 mg/kg, ip after 30 mins by inducible hypothermia test; assay type: functional, organism-based; design: dose 20 mg/kg
[9] = test system: Mus musculus; experiment: Effect on hypothermia in Swiss albino mouse assessed as change in rectal body temperature at 20 mg/kg, ip dosed 15 mins after 0.1 mg/kg, sc WAY 100635 challenge measured after 30 mins by inducible hypothermia test; assay type: functional, organism-based
[10] = test system: Mus musculus; experiment: Effect on hypothermia in Swiss albino mouse assessed as change in rectal body temperature at 10 mg/kg, ip after 90 mins by inducible hypothermia test; assay type: functional, organism-based; design: dose 10 mg/kg
[11] = test system: Mus musculus; experiment: Effect on hypothermia in Swiss albino mouse assessed as change in rectal body temperature at 5 mg/kg, ip after 120 mins by inducible hypothermia test; assay type: functional, organism-based; design: dose 5 mg/kg
[12] = test system: Mus musculus; experiment: Effect on hypothermia in Swiss albino mouse assessed as change in rectal body temperature at 20 mg/kg, ip after 90 mins by inducible hypothermia test; assay type: functional, organism-based; design: dose 20 mg/kg
[13] = test system: Mus musculus; experiment: Effect on hypothermia in Swiss albino mouse assessed as change in rectal body temperature at 20 mg/kg, ip after 120 mins by inducible hypothermia test; assay type: functional, organism-based; design: dose 20 mg/kg
[14] = test system: Mus musculus; experiment: Effect on hypothermia in Swiss albino mouse assessed as change in rectal body temperature at 5 mg/kg, ip after 30 mins by inducible hypothermia test; assay type: functional, organism-based; design: dose 5 mg/kg
[15] = test system: Mus musculus; experiment: Effect on hypothermia in Swiss albino mouse assessed as change in rectal body temperature at 20 mg/kg, ip after 60 mins by inducible hypothermia test; assay type: functional, organism-based; design: dose 20 mg/kg
[16] = test system: Mus musculus; experiment: Effect on hypothermia in Swiss albino mouse assessed as change in rectal body temperature at 5 mg/kg, ip after 90 mins by inducible hypothermia test; assay type: functional, organism-based; design: dose 5 mg/kg
[17] = test system: Mus musculus; experiment: Antidepressant activity in Swiss albino mouse assessed as reduction of immobility time at 10 mg/kg, ip administered 30 mins before test measured 6 mins test session after 2 mins habituation period by forced swimming test; assay type: functional
[18] = test system: Mus musculus; experiment: Effect on hypothermia in Swiss albino mouse assessed as change in rectal body temperature at 5 mg/kg, ip after 60 mins by inducible hypothermia test; assay type: functional, organism-based; design: dose 5 mg/kg
[19] = species: Mus musculus; conditions: Swiss albino, 2.5 mg/kg
Description: Effect on hypothermia in Swiss albino mouse assessed as change in rectal body temperature at 2.5 mg/kg, ip after 30 mins by inducible hypothermia test

[20] = species: Mus musculus; conditions: Swiss albino, 1.25 mg/kg
Description: Effect on hypothermia in Swiss albino mouse assessed as change in rectal body temperature at 1.25 mg/kg, ip after 120 mins by inducible hypothermia test

[21] = species: Mus musculus; conditions: Swiss albino, 2.5 mg/kg; remark: listed apart in the source
Description: Effect on hypothermia in Swiss albino mouse assessed as change in rectal body temperature at 2.5 mg/kg, ip after 120 mins by inducible hypothermia test

[22] = species: Mus musculus; conditions: Swiss albino, 5 mg/kg
Description: Effect on hypothermia in Swiss albino mouse assessed as change in rectal body temperature at 5 mg/kg, ip dosed 15 mins after 0.1 mg/kg, sc WAY 100635 challenge measured after 60 mins by inducible hypothermia test

[23] = species: Mus musculus; conditions: Swiss albino, 5 mg/kg; remark: listed apart in the source
Description: Effect on hypothermia in Swiss albino mouse assessed as change in rectal body temperature at 5 mg/kg, ip dosed 15 mins after 0.1 mg/kg, sc WAY 100635 challenge measured after 30 mins by inducible hypothermia test

[24] = species: Mus musculus; conditions: Swiss albino, 2.5 mg/kg; remark: listed apart in the source
Description: Effect on hypothermia in Swiss albino mouse assessed as change in rectal body temperature at 2.5 mg/kg, ip after 90 mins by inducible hypothermia test

[25] = species: Mus musculus; conditions: Swiss albino, 1.25 mg/kg; remark: listed apart in the source
Description: Effect on hypothermia in Swiss albino mouse assessed as change in rectal body temperature at 1.25 mg/kg, ip after 30 mins by inducible hypothermia test

[26] = species: Mus musculus; conditions: Swiss albino, 1.25 mg/kg; remark: listed apart in the source
Description: Effect on hypothermia in Swiss albino mouse assessed as change in rectal body temperature at 1.25 mg/kg, ip after 90 mins by inducible hypothermia test

[27] = species: Mus musculus; conditions: Swiss albino, 1.25 mg/kg; remark: listed apart in the source
Description: Effect on hypothermia in Swiss albino mouse assessed as change in rectal body temperature at 1.25 mg/kg, ip after 60 mins by inducible hypothermia test

[28] = species: Mus musculus; conditions: Swiss albino, 2.5 mg/kg; remark: listed apart in the source
Description: Effect on hypothermia in Swiss albino mouse assessed as change in rectal body temperature at 2.5 mg/kg, ip after 60 mins by inducible hypothermia test

[29] = test system: Mus musculus; experiment: Effect on hypothermia in Swiss albino mouse assessed as change in rectal body temperature at 10 mg/kg, ip dosed 15 mins after 0.1 mg/kg, sc WAY 100635 challenge measured after 30 mins by inducible hypothermia test; assay type: functional, organism-based
[30] = test system: Mus musculus; experiment: Antidepressant activity in Swiss albino mouse assessed as reduction of immobility time at 5 mg/kg, ip administered 30 mins before test measured 6 mins test session after 2 mins habituation period by forced swimming test; assay type: functional, organism-based; design: dose 5 mg/kg
[31] = test system: Mus musculus; experiment: Effect on spontaneous locomotor activity in Swiss albino mouse assessed as number of light-beam crossings in actiometers pretreated for 30 mins at 10 mg/kg, ip measured during 6 mins post drug dose; assay type: functional; conditions: route intraperitoneal
[32] = test system: Mus musculus; experiment: Effect on spontaneous locomotor activity in Swiss albino mouse assessed as number of light-beam crossings in actiometers pretreated for 30 mins at 10 mg/kg, ip measured during 30 mins post drug dose; assay type: functional; conditions: route intraperitoneal
[33] = test system: Mus musculus; experiment: Effect on hypothermia in Swiss albino mouse assessed as change in rectal body temperature at 10 mg/kg, ip dosed 15 mins after 0.1 mg/kg, sc WAY 100635 challenge measured after 60 mins by inducible hypothermia test; assay type: functional, organism-based

Chain of Sodium-dependent serotonin transporter (P31652 whole entry): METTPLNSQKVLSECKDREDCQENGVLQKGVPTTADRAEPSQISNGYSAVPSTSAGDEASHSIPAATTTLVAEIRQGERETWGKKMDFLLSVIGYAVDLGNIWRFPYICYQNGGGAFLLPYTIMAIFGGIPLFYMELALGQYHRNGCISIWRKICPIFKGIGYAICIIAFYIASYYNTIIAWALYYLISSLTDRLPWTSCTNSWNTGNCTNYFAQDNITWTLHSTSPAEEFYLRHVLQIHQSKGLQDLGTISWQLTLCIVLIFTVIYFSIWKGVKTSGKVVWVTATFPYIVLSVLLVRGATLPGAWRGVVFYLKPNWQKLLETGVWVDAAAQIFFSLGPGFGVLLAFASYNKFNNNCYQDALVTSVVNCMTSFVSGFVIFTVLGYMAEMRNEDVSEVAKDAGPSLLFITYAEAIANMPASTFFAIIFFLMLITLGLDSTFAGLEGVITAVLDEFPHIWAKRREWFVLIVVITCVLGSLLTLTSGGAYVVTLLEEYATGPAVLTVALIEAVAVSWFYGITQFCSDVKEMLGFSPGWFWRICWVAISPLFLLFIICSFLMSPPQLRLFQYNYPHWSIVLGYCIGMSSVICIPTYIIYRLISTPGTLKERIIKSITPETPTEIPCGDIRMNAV

COc1ccc2[nH]cc(C3CCN(CCCCn4c(=O)c(-c5ccccc5C)c5n(c4=O)CCCC5)CC3)c2c1
Ki [1]: 51.7 nM | Ki [2]: 124 nM

Cc1[nH]c2ccccc2c1C1CCN(CCCCn2c(=O)c(-c3ccccc3Cl)c3n(c2=O)CCCC3)CC1
Ki [1]: 2100 nM | Ki [2]: 480 nM

COc1ccc2[nH]cc(C3CCN(CCCCn4c(=O)c(-c5ccc(C)cc5)c5n(c4=O)CCCC5)CC3)c2c1
deltaT [3]: -0.4 °C | deltaT [4]: -0.4 °C | deltaT [5]: -0.6 °C | Activity [6]: inactive | deltaT [7]: -0.1 °C | deltaT [8]: -1.3 °C | deltaT [9]: -0.4 °C | deltaT [10]: -0.2 °C | deltaT [11]: -0.1 °C | Ki [1]: 23 nM | deltaT [12]: -0.8 °C | deltaT [13]: -0.7 °C | deltaT [14]: -0.3 °C | deltaT [15]: -1.3 °C | deltaT [16]: -0.1 °C | Activity [17]: inactive | Ki [2]: 136 nM | deltaT [18]: -0.2 °C

Cc1ccccc1-c1c2n(c(=O)n(CCCCN3CCC(c4c[nH]c5ccccc45)CC3)c1=O)CCCC2
Ki [1]: 53.8 nM | Ki [2]: 124 nM

COc1ccc(-c2c3n(c(=O)n(CCCCN4CCC(c5c[nH]c6ccc(OC)cc56)CC4)c2=O)CCCC3)cc1
deltaT [19]: -0.8 °C | deltaT [20]: -0.2 °C | deltaT [11]: -0.1 °C | Ki [1]: 10.4 nM | deltaT [21]: -0.5 °C | deltaT [22]: -0.9 °C | deltaT [14]: -1.1 °C | deltaT [16]: -0.3 °C | deltaT [23]: -1.2 °C | deltaT [24]: -0.6 °C | deltaT [25]: -0.3 °C | deltaT [26]: -0.4 °C | deltaT [27]: -0.4 °C | deltaT [28]: -0.6 °C | Ki [2]: 83.5 nM | deltaT [18]: -0.5 °C

Cc1[nH]c2ccccc2c1C1CCN(CCCCn2c(=O)c(-c3ccccc3F)c3n(c2=O)CCCC3)CC1
Ki [1]: 2200 nM | Ki [2]: 944 nM

Cc1ccc(-c2c3n(c(=O)n(CCCCN4CCC(c5c(C)[nH]c6ccccc56)CC4)c2=O)CCCC3)cc1
Ki [1]: 1500 nM | Ki [2]: 115 nM

COc1ccc2[nH]cc(C3CCN(CCCCn4c(=O)c(-c5ccc(Cl)cc5)c5n(c4=O)CCCC5)CC3)c2c1
Ki [1]: 14.6 nM | Ki [2]: 222 nM

O=c1c(-c2ccccc2Cl)c2n(c(=O)n1CCCCN1CCC(c3c[nH]c4ccccc34)CC1)CCCC2
Ki [1]: 36.2 nM | Ki [2]: 101 nM

O=c1c(-c2ccccc2F)c2n(c(=O)n1CCCCN1CCC(c3c[nH]c4ccccc34)CC1)CCCC2
deltaT [3]: -1 °C | deltaT [29]: -0.6 °C | deltaT [5]: -1.2 °C | deltaT [7]: -0.5 °C | Activity [30]: inactive | deltaT [10]: -0.8 °C | deltaT [11]: -0.1 °C | Ki [1]: 27.8 nM | Activity [31]: 217 | Activity [32]: 333 | deltaT [14]: -0.3 °C | deltaT [16]: -0.2 °C | deltaT [33]: -0.4 °C | Activity ([17]; route intraperitoneal): 27% | Ki [2]: 102 nM | deltaT [18]: -0.2 °C
